A short description of data set [1]: Liver microsome stability, hamster. In kind it is in vitro ADME. The note with it: golden (Syrian), hamster liver microsomes, pH 7.4, Table 4, read-out: HamLM Clint. How it is done:
(§1) Tests were performed by WuXi AppTec, China. Test compounds (at 1 μM) or positive controls (testosterone, propafenone, and diclofenac) were incubated at 37 °C with liver microsomes from Balb/c mouse, golden (Syrian) hamster, Sprague-Dawley rat, Beagle dog, or human in the presence of a NADPH regenerating system and phosphate buffer (100 mM, pH 7.4) at 0.4 or 0.8 mg/mL microsomal protein. The samples were removed at time intervals from 0 to 60, 90, or 120 min and immediately mixed with cold methanol supplemented or not with acid (3% formic acid) and centrifuged prior to analysis by LC-MS/MS using tolbutamide or propranolol as internal standards.
(Liver microsomes are vesicles of endoplasmic reticulum, rich in cytochrome P450 enzymes.)

Data set [2] relates to L. infantum. The data set can be described thus: Intramacrophage L. infantum assay. In kind it is cell-based. As to conditions: Leishmania infantum, geometric mean of at least two independent tests. The method, then: L. infantum (MHOM/MA/67/ITMAP263) and L. donovani (MHOM/ET/67/L82) were maintained in the golden (Syrian) hamster (Mesocricetus auratus). Ex vivo amastigotes were collected from the spleen of an infected donor hamster using two centrifugation purification steps: 230g for 10 min, keeping the supernatant layer, and 4100g for 30 min, keeping the pellet. The spleen parasite burden was assessed using the Stauber technique.[25] For in vitro assays, the inoculum was prepared in RPMI-1640 medium, supplemented with 200 mM L-glutamine, 16.5 mM NaHCO3, and 5% inactivated fetal calf serum. For the in vivo model, an infection inoculum containing 2 × 10^7 amastigotes/100 μL was prepared in phosphate-buffered saline (PBS).
The assay was performed in sterile 96-well microtiter plates, each well containing 10 μL of the compound dilution and 190 μL of the PMM/amastigote inoculum (3 × 10^4 cells/4.5 × 10^5 parasites per well). Parasite multiplication was compared to untreated infected controls (100% growth) and uninfected controls (0% growth). After five-day incubation, total parasite burdens were microscopically assessed after staining the cells with a 10% Giemsa solution. The results were expressed as a percentage reduction in parasite burden compared to untreated control wells. EC50 values were determined using an extended dose range (2-fold compound dilutions, 8-point concentration curve). Miltefosine was used as the reference drug.[26] For selected compounds, this assay format was also run using the L. donovani inoculum.

Data set [3] is described as follows: Liver microsome stability, human. In kind it is in vitro ADME. As to conditions: human liver microsomes. How it is done:
as §1

A short description of data set [4]: MRC5 cytotoxicity assay. In kind it is cell-based. The note with it: human, MRC5SV2 cells (human embryonic lung fibroblasts), geometric mean of at least two independent tests. How it is done: (§2) Primary peritoneal mouse macrophages (PMM) were collected two days after peritoneal stimulation with a 2% potato starch suspension. MRC5SV2 cells (diploid human embryonic lung fibroblasts) were cultured in minimal essential medium (MEM) containing Earle’s salts, supplemented with L-glutamine, NaHCO3, and 5% inactivated fetal calf serum. All cultures and assays were conducted at 37 °C under an atmosphere of 5% CO2.
(§3) Assays were performed in sterile 96-well microtiter plates, each well containing 10 μL of the compound dilution and 190 μL of MRC5SV2 or PMM inoculum (3 × 10^4 cells/mL). Cell growth was compared to untreated controls (100% growth) and assay-media controls (0% growth). After three-day incubation, cell viability was assessed fluorometrically by adding resazurin (50 μL/well of a stock solution in phosphate buffer (50 μg/mL)), incubating for 4 h and measuring fluorescence (λex 550 nm, λem 590 nm). The results were expressed as a percentage reduction in cell growth compared to untreated control wells. […] Tamoxifen was included as the reference drug.

The nature of data set [5]: PMM cytotoxicity assay. In kind it is cell-based. The note with it: mouse, primary peritoneal mouse macrophages (PMM), geometric mean of at least two independent tests. How it is done:
as §2, §3

The mark [6] stands for this setting: Table 4, read-out: intramacrophage L. infantum EC50.
The mark [7] stands for this setting: pH 7.4, Table 4, read-out: HLM Clint.
[8] abbreviates: Table 5, read-out: intramacrophage L. infantum amastigote EC50.

Where two headings read alike, the source gives them in different places.

In the case of `O=C(Nc1ccc2c(c1)B(O)OC2)c1cn(C(F)(F)F)nc1C(F)(F)F` [Compound 4, N-(1-Hydroxy-1,3-dihydrobenzo[c][1,2]oxaborol-6-yl)-1,3-bis(trifluoromethyl)-1H-pyrazole-4-carboxamide], the microsomal CLint at 2 h, 1 µM in data set [1] was found to be 1040 µL/min/mg. Also, the EC50 in data set [2] (setting [6]) worked out at 2.1 µM. The microsomal CLint at 1 μM in data set [3] (setting [7]) was under 11.9 µL/min/mg. Moreover, the CC50 at 3 days in data set [4] (Table 4) and in data set [5] (Table 4) was over 64 µM throughout.
For `O=C(Nc1ccc2c(c1)B(O)OC2)c1cn(CCC(F)(F)F)nc1C(F)(F)F` [Compound 6, N-(1-Hydroxy-1,3-dihydrobenzo[c][1,2]oxaborol-6-yl)-3-(trifluoromethyl)-1-(3,3,3-trifluoropropyl)-1H-pyrazole-4-carboxamide], in data set [1], the microsomal CLint at 2 h, 1 µM stood at 114 µL/min/mg. Further, the 50% effective concentration (EC50) in data set [2] (setting [6]) is 1.3 µM. The microsomal CLint at 1 μM in data set [3] (setting [7]) was under 11.9 µL/min/mg. The CC50 at 72 h turned out to be 49 µM in data set [4] (Table 4) and 38 µM in data set [5] (Table 4).
In the case of `Cc1nn(CCC(F)(F)F)cc1C(=O)Nc1ccc2c(c1)B(O)OC2` [Compound 7, N-(1-Hydroxy-1,3-dihydrobenzo[c][1,2]oxaborol-6-yl)-3-methyl-1-(3,3,3-trifluoropropyl)-1H-pyrazole-4-carboxamide], the EC50 in data set [2] (setting [6]) worked out at 5.7 µM. The CC50 at 3 days in data set [4] (Table 4) and in data set [5] (Table 4) was over 64 µM each time.
With `Cc1nn(C2CCC2)cc1C(=O)Nc1ccc2c(c1)B(O)OC2` [Compound 8, Cyclobutyl-N-(1-hydroxy-1,3-dihydrobenzo[c][1,2]oxaborol-6-yl)-3-methyl-1H-pyrazole-4-carboxamide], the microsomal CLint at 2 h, 1 µM in data set [1] is 57 µL/min/mg. In addition, the EC50 in data set [2] (setting [6]) was determined as 16 µM. Further, the microsomal CLint at 1 μM in data set [3] (setting [7]) was under 11.9 µL/min/mg. In addition, the CC50 at 3 days in data set [4] (Table 4) and in data set [5] (Table 4) was over 64 µM throughout.
`O=C(Nc1ccc2c(c1)B(O)OC2)c1cn(C2CCC2)nc1C(F)(F)F` [Compound 9, 1-Cyclobutyl-N-(1-hydroxy-1,3-dihydrobenzo[c][1,2]oxaborol-6-yl)-3-(trifluoromethyl)-1H-pyrazole-4-carboxamide]: in data set [1], the microsomal CLint at 2 h, 1 µM was found to be 337 µL/min/mg. Further, the EC50 in data set [2] (setting [6]) was 0.59 µM. For the same compound, the microsomal CLint at 1 μM in data set [3] (setting [7]) is under 11.9 µL/min/mg. The CC50 at 72 h in data set [4] (Table 4) was 26 µM; in data set [5] (Table 4) it was 32 µM.
As for `O=C(Nc1ccc2c(c1)B(O)OC2)c1cn(C2CCOCC2)nc1C(F)(F)F` [Compound 10, N-(1-Hydroxy-1,3-dihydrobenzo[c][1,2]oxaborol-6-yl)-1-(tetrahydro-2H-pyran-4-yl)-3-(trifluoromethyl)-1H-pyrazole-4-carboxamide], the microsomal CLint at 2 h, 1 µM in data set [1] is 109 µL/min/mg. Besides, the EC50 in data set [2] (setting [6]) came out at 3 µM. The microsomal CLint at 1 μM in data set [3] (setting [7]) was under 11.9 µL/min/mg. Also, the CC50 at 3 days in data set [4] (Table 4) and in data set [5] (Table 4) was over 64 µM in each case.
In the case of `Cc1nn(-c2ccccn2)cc1C(=O)Nc1ccc2c(c1)B(O)OC2` [Compound 11, N-(1-Hydroxy-1,3-dihydro-2,1-benzoxaborol-6-yl)-3-methyl-1-(pyridine-2-yl)-1H-pyrazole-4-carboxamide], the EC50 in data set [2] (setting [6]) came to 5.7 µM. For the same compound, the microsomal CLint at 1 μM in data set [3] (setting [7]) was under 11.9 µL/min/mg. The cytotoxic concentration (CC50) at 3 days in data set [4] (Table 4) and in data set [5] (Table 4) was over 64 µM each time.
With `COc1ccccc1-n1cc(C(=O)Nc2ccc3c(c2)B(O)OC3)c(C)n1` [Compound 14, N-(1-Hydroxy-1,3-dihydro-2,1-benzoxaborol-6-yl)-1-(2-methoxyphenyl)-3-methyl-1H-pyrazole-4-carboxamide], the EC50 in data set [2] (setting [6]) was found to be 2.2 µM. Moreover, the CC50 at 72 h in data set [4] (Table 4) is 15.7 µM. In data set [5] (Table 4), this compound showed a CC50 at 3 days of over 64 µM.
For the compound `Cc1c(C(=O)Nc2ccc3c(c2)B(O)OC3)cnn1CCC(F)(F)F` [Compound 15, N-(1-Hydroxy-1,3-dihydrobenzo[c][1,2]oxaborol-6-yl)-5-methyl-1-(3,3,3-trifluoropropyl)-1H-pyrazole-4-carboxamide], in data set [1], the microsomal CLint at 2 h, 1 µM was determined as 48 µL/min/mg. The EC50 in data set [2] (setting [6]) came to 14 µM. In addition, the microsomal CLint at 1 μM in data set [3] (setting [7]) was under 11.9 µL/min/mg. The CC50 at 3 days in data set [4] (Table 4) and in data set [5] (Table 4) was over 64 µM throughout.
As to `COc1cccc(-n2ncc(C(=O)Nc3ccc4c(c3)B(O)OC4)c2C)n1` [Compound 17, N-(1-Hydroxy-1,3-dihydrobenzo[c][1,2]oxaborol-6-yl)-1-(6-methoxypyridin-2-yl)-5-methyl-1H-pyrazole-4-carboxamide], in data set [1], the microsomal CLint at 2 h, 1 µM came out at 40 µL/min/mg. Besides, the EC50 in data set [2] (setting [6]) is 1.4 µM. The microsomal CLint at 1 μM in data set [3] (setting [7]) is under 11.9 µL/min/mg. Moreover, the midpoint of cytotoxicity in data set [4] (Table 4), the CC50 at 72 h, lay at 40 µM. The compound also registered a CC50 at 3 days in data set [5] (Table 4) of over 64 µM.
As to `Cc1cccc(-n2ncc(C(=O)Nc3ccc4c(c3)B(O)OC4)c2C)n1` [Compound 18, N-(1-Hydroxy-1,3-dihydrobenzo[c][1,2]oxaborol-6-yl)-5-methyl-1-(6-methylpyridin-2-yl)-1H-pyrazole-4-carboxamide], the microsomal CLint at 2 h, 1 µM in data set [1] came to 44 µL/min/mg. The EC50 in data set [2] (setting [6]) turned out to be 1.6 µM. In data set [3] (setting [7]), the microsomal CLint at 1 μM was under 11.9 µL/min/mg. In addition, in data set [4] (Table 4), it took 41 µM to reach half-maximal cytotoxicity (CC50 at 72 h). In data set [5] (Table 4), this compound gave a CC50 at 3 days of over 64 µM.
As to `O=C(Nc1ccc2c(c1)B(O)OC2)c1cc(-c2ccccn2)n[nH]1` [Compound 19, N-(1-Hydroxy-1,3-dihydrobenzo[c][1,2]oxaborol-6-yl)-3-(pyridin-2-yl)-1H-pyrazole-5-carboxamide], in data set [1], the microsomal CLint at 2 h, 1 µM was 253 µL/min/mg. The EC50 in data set [2] (setting [6]) stood at 0.5 µM. The microsomal CLint at 1 μM in data set [3] (setting [7]) was under 11.9 µL/min/mg. Further, the CC50 at 72 h is 4 µM in data set [4] (Table 4) and 32 µM in data set [5] (Table 4).
With `Cn1nc(-c2ccccn2)cc1C(=O)Nc1ccc2c(c1)B(O)OC2` [Compound 20, N-(1-Hydroxy-1,3-dihydrobenzo[c][1,2]oxaborol-6-yl)-1-methyl-3-(pyridin-2-yl)-1H-pyrazole-5-carboxamide], the microsomal CLint at 2 h, 1 µM in data set [1] came out at 121 µL/min/mg; in data set [3] (setting [7]), 18 µL/min/mg. In addition, the EC50 in data set [2] (setting [6]) amounted to 34 µM. The CC50 at 3 days in data set [4] (Table 4) and in data set [5] (Table 4) was over 64 µM throughout.
For the compound `Cn1nc(C(=O)Nc2ccc3c(c2)B(O)OC3)cc1-c1ccccn1` [Compound 21, N-(1-Hydroxy-1,3-dihydrobenzo[c][1,2]oxaborol-6-yl)-1-methyl-5-(pyridin-2-yl)-1H-pyrazole-3-carboxamide], the microsomal CLint at 2 h, 1 µM came out at 106 µL/min/mg in data set [1] and 14 µL/min/mg in data set [3] (setting [7]). In addition, in data set [2] (setting [6]), the EC50 was 1.8 µM. Moreover, in data set [4] (Table 4), the CC50 at 72 h was 54 µM. This compound displayed a CC50 at 3 days in data set [5] (Table 4) of over 64 µM.
For the compound `Cc1c(C(=O)Nc2ccc3c(c2)B(O)OC3)nnn1-c1ccccc1` [Compound 24, N-(1-Hydroxy-1,3-dihydrobenzo[c][1,2]oxaborol-6-yl)-5-methyl-1-phenyl-1H-1,2,3-triazole-4-carboxamide], the EC50 in data set [2] (setting [8]) was found to be 37 µM. The microsomal CLint at 1 μM in data set [3] (pH 7.4, Table 5, read-out: HLM Clint) was under 11.9 µL/min/mg. Besides, the CC50 at 3 days in data set [4] (Table 5) and in data set [5] (Table 5) was over 64 µM in each case.
For the compound `Cc1cccc(-n2nnc(C(=O)Nc3ccc4c(c3)B(O)OC4)c2C)n1` [Compound 26, N-(1-Hydroxy-1,3-dihydrobenzo[c][1,2]oxaborol-6-yl)-5-methyl-1-(6-methylpyridin-2-yl)-1H-1,2,3-triazole-4-carboxamide], the EC50 in data set [2] (setting [8]) is 6.4 µM. The CC50 at 3 days in data set [4] (Table 5) and in data set [5] (Table 5) was over 64 µM each time.
Consider `Cc1c(C(=O)Nc2ccc3c(c2)B(O)OC3)nnn1-c1cccnc1` [Compound 27, N-(1-Hydroxy-1,3-dihydrobenzo[c][1,2]oxaborol-6-yl)-5-methyl-1-(pyridin-3-yl)-1H-1,2,3-triazole-4-carboxamide], for which the EC50 in data set [2] (setting [8]) turned out to be 38 µM. In addition, the cytotoxic concentration (CC50) at 3 days in data set [4] (Table 5) and in data set [5] (Table 5) was over 64 µM throughout.

One may read the EC50 as the midpoint of the concentration-response curve. Usually CC50 stands for the concentration that lowers cell viability or growth by half. A low value points to greater toxicity to the cells.

The values above are taken from article PMC8591608, “DNDI-6148: A Novel Benzoxaborole Preclinical Candidate for the Treatment of Visceral Leishmaniasis” (Journal of Medicinal Chemistry, 2021).
